Where “and” joins values, the source holds several entries; their conditions need not be identical. Equal values may be shown once.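 Dose response: 5 concentrations. Exposure: 48 h. Format: 96-well plates. Endpoint: linear interpolation; highest concentration if not reached. GI50: concentration for 50% inhibition of growth. TGI: concentration producing complete growth inhibition.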
Legend:
Assay in all cases: NCI anticancer screen, dose series, 48 h
COLO 205 colon = test system: COLO 205 colon
RPMI-8226 leukemia = test system: RPMI-8226 leukemia
IGROV1 ovarian = test system: IGROV1 ovarian
HCC-2998 colon = test system: HCC-2998 colon
UACC-62 melanoma = test system: UACC-62 melanoma
SW-620 colon = test system: SW-620 colon
SN12C renal = test system: SN12C renal
NCI-H226 lung = test system: NCI-H226 lung
NCI/ADR-RES ovarian = test system: NCI/ADR-RES ovarian

Structure (SMILES)	TGI (COLO 205 colon)	TGI (RPMI-8226 leukemia) [µM]	TGI (IGROV1 ovarian) [µM]	TGI (HCC-2998 colon) [µM]	TGI (UACC-62 melanoma) [µM]	TGI (SW-620 colon) [µM]	TGI (SN12C renal) [µM]	TGI (NCI-H226 lung) [µM]	GI50 (COLO 205 colon) [µM]	GI50 (RPMI-8226 leukemia) [µM]	GI50 (IGROV1 ovarian) [µM]	GI50 (NCI/ADR-RES ovarian) [µM]	TGI (NCI/ADR-RES ovarian) [µM]	GI50 (SW-620 colon) [µM]	GI50 (SN12C renal) [µM]	GI50 (NCI-H226 lung) [µM]	GI50 (HCC-2998 colon) [µM]	GI50 (UACC-62 melanoma) [µM]
COC(=O)C1=NC(=S)NC(c2ccccc2)C1c1nc2ccccc2o1 (centres undefined)	> 50 µM	> 50	> 50	> 50	> 50	> 50	> 50	> 50	–	–	–	–	–	–	–	–	–	–
CCCCCCCCCCCC/C=C\CC[C@@H](O)[C@H](O)CC[C@H](O)[C@@H]1CC[C@@H](CCCCCCCC2=C[C@H](C)OC2=O)O1	8.36 µM and 22.9 µM	3.87	28.1	37.1	6.45	> 100	31	34.3	7.21	1.43	7.09	7.19	27.8	23.4	13	13.3	–	–
Cc1cc(NCCCCCCCNc2cc(C)nc3cc(N)ccc23)c2ccc(N)cc2n1	29.3 µM	> 100	–	> 100	> 100	–	> 100	78.4	–	–	–	–	–	–	–	–	–	–
CC(C)c1ccc(O)c(Cc2cc(C(C)C)cc(Cc3cc(C(C)C)ccc3O)c2O)c1	12.3 µM	4.75	6.54	3.2	8.48	3.09	3.16	2.93	–	–	–	–	–	–	–	–	–	–
COC(=O)Cc1cc(=O)n2c3ccccc3n(C)c2c1C#N	> 100 µM	> 100	> 100	> 100	–	> 100	> 100	> 100	–	–	–	–	–	–	–	–	–	–
CC(=O)CCC1(c2ccccc2)OC(=O)C(C#N)=C1c1ccccc1 (centres undefined)	> 100 µM	> 100	> 100	> 100	> 100	> 100	> 100	–	–	–	–	–	–	–	–	–	–	–
COC(=O)CC1(O)C(=O)OCc2c1cc1n(c2=O)Cc2c-1nc1ccccc1c2OC (centres undefined)	> 100 µM	23.2	> 74.3	> 100	2.29	> 100	1.84	0.688	–	–	–	–	–	–	–	–	–	–
Cc1ccc(C)c2c1C1CCCCC3(OCCCO3)C21O (centres undefined)	> 100 µM	> 100	> 100	> 100	> 100	> 100	> 100	> 100	–	–	–	–	–	–	–	–	–	–
O=C(N/C(=C\c1ccc([N+](=O)[O-])cc1)c1nc2ccccc2s1)c1ccccc1	> 100 µM	44.1	> 100	> 100	48.3	69	44.9	–	–	–	–	–	–	–	–	–	–	–
[Br][Pb]([c]1ccccc1)([c]1ccccc1)[c]1ccccc1	0.356 µM	0.681	–	0.412	0.428	0.3	0.677	0.381	0.177	0.179	–	0.229	0.561	0.163	0.228	0.173	0.191	0.186
OC12CCC3(OC4CCCCO4)c4ccccc4C3C1c1ccccc12 (centres undefined)	> 100 µM	> 100	–	–	> 100	> 100	> 100	> 100	–	–	–	–	–	–	–	–	–	–
C=CCNC(=S)NNC(=O)c1c(C)nc2sccn12	> 100 µM	–	> 100	> 100	> 100	> 100	> 100	> 100	–	–	–	–	–	–	–	–	–	–
CCCC1C[C@H]2CCCCN2[C@H]2CCCN12 (some centres undefined)	> 83.4 µM	> 63.9	> 100	> 100	> 100	> 58.4	> 100	> 100	–	–	–	–	–	–	–	–	–	–
O=P(CN1CCOCC1)(c1ccccc1)c1ccccc1	> 100 µM	> 100	> 100	–	> 100	> 100	> 100	–	–	–	–	–	–	–	–	–	–	–
CCOc1ccc(NC(=O)CC2SC(=Nc3ccc(C)cc3)NC2=O)cc1 (centres undefined)	> 100 µM	–	> 100	–	> 100	> 100	> 100	–	–	–	–	–	–	–	–	–	–	–
COc1ccc(/C=C/C(=O)c2c(-c3ccccc3)nn(C)c(=O)c2N2CC2C)cc1 (centres undefined)	89.2 µM	–	> 100	66.6	71.2	88.2	> 100	> 100	–	–	–	–	–	–	–	–	–	–
Cc1cc(Cl)ccc1N=C1NC(=O)C(CC(=O)Nc2cccc(Cl)c2)S1 (centres undefined)	> 100 µM	–	> 100	> 100	> 100	> 100	> 100	> 100	–	–	–	–	–	–	–	–	–	–
FC(F)(F)c1ccccc1C1SCc2nc3ccccc3n21 (centres undefined)	> 100 µM	> 100	> 100	> 100	> 100	> 100	> 100	> 100	–	–	–	–	–	–	–	–	–	–
COc1ccc(/C=C/C(=N\NC(=O)c2ccccc2)c2sc(Nc3ccc([N+](=O)[O-])cc3)nc2C)cc1OC	> 100 µM	–	–	> 100	6.78	> 100	> 100	44.7	–	–	–	–	–	–	–	–	–	–
COc1cc2c(oc(=O)c3c4occc4cc(OC)c23)c2cccc(O)c12	> 100 µM	> 100	> 100	> 100	> 100	> 100	> 100	> 100	–	–	–	–	–	–	–	–	–	–

Reference: PubChem BioAssay (NCI)
